Measured values published in PMC6151550, “Inhibitory Effect of Selaginellins from Selaginella tamariscina (Beauv.) Spring against Cytochrome P450 and Uridine 5′-Diphosphoglucuronosyltransferase Isoforms on Human Liver Microsomes” (Molecules : A Journal of Synthetic Chemistry and Natural …, 2017).
Read-outs that look alike come from different tables or passages of the source.

Columns and labels:
Assay type in all cases: in vitro ADME
CYP1A2 = biological target: T1, CYP1A2 (Homo sapiens, UniProt P05177); assay: CYP1A2 inhibition (phenacetin O-deethylase) in human liver microsomes, substrate cocktail LC-MS/MS
T1 construct: the incubation mixtures containing pooled HLMs (0.25 mg/mL, H2630, Xenotech); tissue Xenotech H2630; host or cells: pooled human liver microsomes
T1 sequence (P05177 1-516): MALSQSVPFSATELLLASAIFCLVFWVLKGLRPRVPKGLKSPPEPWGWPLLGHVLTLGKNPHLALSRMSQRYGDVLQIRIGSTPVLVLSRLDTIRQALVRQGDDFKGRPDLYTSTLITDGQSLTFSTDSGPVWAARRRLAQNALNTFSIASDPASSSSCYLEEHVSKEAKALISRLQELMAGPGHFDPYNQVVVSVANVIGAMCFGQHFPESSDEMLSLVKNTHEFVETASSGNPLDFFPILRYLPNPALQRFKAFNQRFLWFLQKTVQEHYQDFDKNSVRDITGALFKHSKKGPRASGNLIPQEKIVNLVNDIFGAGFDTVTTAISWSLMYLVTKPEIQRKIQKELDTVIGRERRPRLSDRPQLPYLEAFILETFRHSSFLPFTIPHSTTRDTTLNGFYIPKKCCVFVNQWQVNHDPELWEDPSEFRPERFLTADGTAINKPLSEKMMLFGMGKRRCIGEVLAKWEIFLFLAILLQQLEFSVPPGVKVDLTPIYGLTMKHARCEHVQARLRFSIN
Protocol: (§1) The inhibitory effects of two selaginellins on the metabolism of ten P450 probe substrates were evaluated using previously reported method with minor modification. Phenacetin O-deethylase, coumarin 7-hydroxylase, bupropion 4-hydroxylase, amodiaquine N-deethylase, tolbutamide 4-hydroxylase, omeprazole 5-hydroxylase, dextromethorphan O-demethylase, chlorzoxazone 6-hydroxylase and midazolam 1′-hydroxylase activities were determined as probe activities for CYP1A2, CYP2A6, CYP2B6, CYP2C8, CYP2C9, CYP2C19, CYP2D6, CYP2E1 and […], respectively, using substrate cocktail incubation and tandem mass spectrometry (Table 2). Selaginellins were dissolved in methanol. The final concentrations of organic solvent (methanol) for the cocktail incubation conditions in all experiments were 1.0% (v/v). In brief, the incubation mixtures containing pooled HLMs (0.25 mg/mL, H2630, Xenotech), P450 probe substrate cocktail, and inhibitor (0, 0.5, 2, 5, 20 and 50 μM) were preincubated at 37 °C for 5 min. […] After mixing and centrifugation, aliquots were analyzed by liquid chromatography-tandem mass spectrometry (LC-MS/MS) as previous described. The CYP2J2 inhibitory effects of two selaginellins were also evaluated in pooled HLMs using previously reported method. […]

CYP3A = CYP3A inhibition (midazolam 1'-hydroxylase) in human liver microsomes, substrate cocktail LC-MS/MS
Protocol: as §1

CYP2C19 = biological target: T2, CYP2C19 (Homo sapiens, UniProt P33261); assay: CYP2C19 inhibition (omeprazole 5-hydroxylase) in human liver microsomes, substrate cocktail LC-MS/MS
T2 construct: the incubation mixtures containing pooled HLMs (0.25 mg/mL, H2630, Xenotech); tissue Xenotech H2630; host or cells: pooled human liver microsomes
T2 sequence (P33261 whole entry): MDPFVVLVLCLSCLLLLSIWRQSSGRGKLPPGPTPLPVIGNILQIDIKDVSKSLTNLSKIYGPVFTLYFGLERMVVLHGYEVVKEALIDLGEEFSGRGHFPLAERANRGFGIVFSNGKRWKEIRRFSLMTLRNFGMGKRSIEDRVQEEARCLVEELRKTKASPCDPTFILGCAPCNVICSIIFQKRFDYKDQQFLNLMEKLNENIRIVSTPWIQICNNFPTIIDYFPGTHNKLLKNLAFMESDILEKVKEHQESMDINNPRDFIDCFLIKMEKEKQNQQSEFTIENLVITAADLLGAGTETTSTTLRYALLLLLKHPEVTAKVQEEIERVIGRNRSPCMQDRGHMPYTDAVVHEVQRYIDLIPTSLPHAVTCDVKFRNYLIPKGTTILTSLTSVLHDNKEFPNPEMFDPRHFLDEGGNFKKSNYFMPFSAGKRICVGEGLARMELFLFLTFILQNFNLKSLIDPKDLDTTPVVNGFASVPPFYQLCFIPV
Protocol: as §1

CYP2C8 = biological target: T3, CYP2C8 (Homo sapiens, UniProt P10632); assay: CYP2C8 inhibition (amodiaquine N-deethylase) in human liver microsomes, substrate cocktail LC-MS/MS
T3 construct: the incubation mixtures containing pooled HLMs (0.25 mg/mL, H2630, Xenotech); tissue Xenotech H2630; host or cells: pooled human liver microsomes
T3 sequence (P10632 1-490): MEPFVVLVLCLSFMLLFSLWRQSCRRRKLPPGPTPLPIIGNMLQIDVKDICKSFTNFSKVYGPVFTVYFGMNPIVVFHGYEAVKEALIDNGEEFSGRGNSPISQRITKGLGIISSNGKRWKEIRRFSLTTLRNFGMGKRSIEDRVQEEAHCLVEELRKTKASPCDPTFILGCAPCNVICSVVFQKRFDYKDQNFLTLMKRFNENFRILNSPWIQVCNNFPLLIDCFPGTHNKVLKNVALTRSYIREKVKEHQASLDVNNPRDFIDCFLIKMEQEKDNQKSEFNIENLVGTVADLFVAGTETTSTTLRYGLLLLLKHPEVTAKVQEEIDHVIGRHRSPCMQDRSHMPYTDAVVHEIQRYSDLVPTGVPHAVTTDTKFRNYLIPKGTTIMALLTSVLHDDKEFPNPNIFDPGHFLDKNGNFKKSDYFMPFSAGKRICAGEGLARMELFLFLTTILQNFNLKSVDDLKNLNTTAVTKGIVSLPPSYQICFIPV
Protocol: The inhibitory effects of two selaginellins on the metabolism of ten P450 probe substrates were evaluated using previously reported method with minor modification. Phenacetin O-deethylase, coumarin 7-hydroxylase, bupropion 4-hydroxylase, amodiaquine N-deethylase, tolbutamide 4-hydroxylase, omeprazole 5-hydroxylase, dextromethorphan O-demethylase, chlorzoxazone 6-hydroxylase and midazolam 1′-hydroxylase activities were determined as probe activities for CYP1A2, CYP2A6, CYP2B6, CYP2C8, CYP2C9, CYP2C19, CYP2D6, CYP2E1 and […], respectively, using substrate cocktail incubation and tandem mass spectrometry (Table 2). Selaginellins were dissolved in methanol. The final concentrations of organic solvent (methanol) for the cocktail incubation conditions in all experiments were 1.0% (v/v). In brief, the incubation mixtures containing pooled HLMs (0.25 mg/mL, H2630, Xenotech), P450 probe substrate cocktail, and inhibitor (0, 0.5, 2, 5, 20 and 50 μM) were preincubated at 37 °C for 5 min. The reaction was initiated by adding of the NADPH generating system (3.3 mM G6P, 1.3 mM β-NADP+, 3.3 mM MgCl2, and 1 unit/mL G6PDH) followed by incubation for 15 min at 37 °C. Next, each incubation was stopped by addition of 50 μL ice-cold acetonitrile containing terfenadine (IS). After mixing and centrifugation, aliquots were analyzed by liquid chromatography-tandem mass spectrometry (LC-MS/MS) as previous described. The CYP2J2 inhibitory effects of two selaginellins were also evaluated in pooled HLMs using previously reported method. In brief, the incubation reaction mixtures contained 0.25 mg/mL HLMs, astemizole (1 μM) and inhibitor (0.5–50 μM) in […] phosphate buffer (pH 7.4). The reaction was initiated by the addition of NADPH-generating system and further incubated for 15 min. After reaction termination with cold acetonitrile containing 5 ng/mL terfenadine and centrifugation, aliquots were injected into a liquid chromatography-tandem mass spectrometry system (LC-MS/MS) as described previously (Table 2). All microsomal incubations were performed in triplicate. […]

IC50 (CYP1A2; pooled HLMs 0.25 mg/mL, phenacetin 100 μM, read-out: IC50 P450 isoform 1A2)	IC50 at 15 min (CYP3A)	Compound	IC50 (CYP2C19)	IC50 (CYP2C8)	IC50 (CYP1A2)	IC50 at 15 min (CYP3A; pooled HLMs 0.25 mg/mL, midazolam 5.0 μM, read-out: IC50 P450 isoform 3A)	inhibitory potential for CYP2C8-mediated amodiaquine O-demethylation (class) (CYP2C8; human liver microsomes, class by Krippendorff's criteria)
> 50 µM	> 50 µM	COc1ccc(C(=C2C=CC(=O)C=C2)c2c(-c3ccc(O)cc3)ccc(CO)c2C#Cc2ccc(O)cc2)cc1 [Selaginellin M]	16.1 µM	0.9 µM			
		O=C1C=CC(=C(c2ccc(O)cc2)c2c(-c3ccc(O)cc3)ccc(CO)c2C#Cc2ccc(O)cc2)C=C1 [Selaginellin]	10 µM	0.5 µM	36.4 µM	11.7 µM	high (high (IC50 < 1 μM))
